Test results taken from US20220142913A1, “TRANSDERMAL DELIVERY FORMULATIONS” (Albert Einstein College of Medicine, priority 2020, published 2022).
Values belong to the molecule of their own block, whether it stands above or below them.

Assay: Loading potential / solubility of low solubility agents in PEG400/myristic acid vehicles, nitrite saturated PEG400 and water
Assay type: physicochemical
Settings: for dissolution in Sample 3 solvent system: Sample 3: 30 ml PEG400 + 0.75 grams MA; for dissolved material in aqueous solution: aqueous sample
Method: Vehicles for loading the active ingredient were prepared as illustrated in samples 1-4. Myristic acid (solid flakes) was dissolved in PEG400 upon warming the mixture in a warm water bath. Shaking accelerated the formation of the resulting clear solution. The following four concentrations of myristic acid (MA) in PEG400 were prepared and evaluated. Samples 1, 2, 3 and 4 were all clear solutions when the samples were allowed to attain ambient temperatures.
The samples as vehicles were loaded with NO enhancing agent. […] Samples 1 and 2 were initially liquid but formed a solid uniform gel over a period of several hours. Sample 3 was prepared by dissolving 0.75 grams of MA in 30 ml's of PEG400 and heating in a water bath (˜60-80 C) for ˜15 minutes. Sample 4 was prepared by dissolving 2.25 grams of MA in 30 mls of PEG400 and heating in a water bath (˜60-80 C) for ˜15 minutes. Both sample 3 and sample 4 were uniform solutions when the heating cycle was finished. Upon cooling sample 3 remained liquid whereas sample 4 formed a uniform gel. […]
The Sample 3 solvent system was also tested as a vehicle for loading potential with the following low solubility reagents using the above method: quercetin, berberine, N-acetyl cysteine amide (NACA) and N-acetyl cysteine ethyl ester (NAC-ethylester).
The solutions of the two lipophilic NAC derivatives were prepared using sodium nitrite saturated PEG400, resulting in a clear solution. […] NAC is water soluble and the two derivatives are marginally soluble in water. The two solutions were then treated with several drops of acetic acid to trigger the formation of nitrous acid from the nitrite which can then nitrosate the reactive thiol on both of the NAC derivatives. The solutions turned pink indicative of S-nitrosothiol formation. The solutions remained pink for several days. The corresponding aqueous solutions lost color within hours. The use of nitrite saturated PEG400 allows for formulations that can be used to generate NO and S-nitrosothiols through mixing with reagents that acidify the mixture. A double frangible pouch incorporated into a patch may be used for a sustained NO delivery vehicle suitable for topical and transdermal applications.

solubility in sodium nitrite saturated PEG400: limited solubility
solubility in water: water soluble
Molecule: CC(=O)N[C@@H](CS)C(=O)O [NAC, N-acetyl cysteine]

dissolution in Sample 3 solvent system: substantial dissolution
Molecule: N-acetyl cysteine amide [NACA]

dissolution in Sample 3 solvent system: substantial dissolution
dissolved material in aqueous solution: minimal dissolved material
Molecule: COc1ccc2cc3[n+](cc2c1OC)CCc1cc2c(cc1-3)OCO2 [berberine]

dissolving of the added curcumin (1.5 grams Curcumin 95 in Samples 1, 2, 3 (30 ml PEG400 + myristic acid), warmed, cooled to ambient): almost all of the added curcumin
Molecule: COc1cc(/C=C/C(=O)CC(=O)/C=C/c2ccc(O)c(OC)c2)ccc1O [Curcumin 95, curcumin]

dissolution in Sample 3 solvent system: substantial dissolution
Molecule: CCOC(=O)[C@H](CS)NC(C)=O [NAC-ethylester, N-acetyl cysteine ethyl ester]

solubility of quercetin: 200-300 mg in 30 ml
solubilization in Sample 3: high degree of solubilization
dissolution in Sample 3 solvent system: substantial dissolution
dissolved material in aqueous solution: minimal dissolved material
Molecule: O=c1c(O)c(-c2ccc(O)c(O)c2)oc2cc(O)cc(O)c12 [quercetin]

dissolution in water (colour of liquid phase) (same amount of curcumin in same volume of water (3 g in 30 ml)): almost no color in the liquid phase
Molecule: COc1cc(/C=C/C(=O)CC(=O)/C=C/c2ccc(O)c(OC)c2)ccc1O [curcumin]
